This note sets out measurements from patent US7371766B2, “Curcumin analogs with anti-tumor and anti-angiogenic properties” (Emory University, priority 1999, dated 2008).

In data set [1] the test system is MDA-MB-231. The data set is described as follows: Emory Laboratory Cell Screen, Neutral Red, MDA-MB-231. Particulars: MDA-MB-231, Breast Cancer, 72 hours, read-out: Median Growth Inhibitory Concentration (GI50). It is filed as cell-based, human. The method, then:
(§1) Human tumor and endothelial cell lines were treated for 72 hours with compounds at a minimum of four concentrations between 0.1 μM-40 μM. Neutral Red assay was used to calculate cell viability.

Data set [2] relates to Human tumor and endothelial cell lines. Description: Emory Laboratory Cell Screen, mean over cell lines. The format is cell-based. Particulars: Mean over the Emory cell lines, 72 hours, read-out: Median Growth Inhibitory Concentration (GI50), Mean. The method, then: as §1
The test system of data set [3] is Tissue Factor (TF) production by human melanoma cell line RPMI-7951. The data set is described as follows: TF ELISA, RPMI-7951. The format is cell-based. The method, then:
IMUBIND Tissue Factor ELISA Kit (American Diagnostica Inc, Greenwich, Conn.) was used to determine TF concentration in each sample. The ELISA was carried out according to manufacturer's procedure.

In data set [4] the test system is Vascular Endothelial Growth Factor (VEGF) production by human prostate cancer cell line DU-145. Description: VEGF ELISA, DU-145. The format is cell-based. On the technique in general: ELISA stands for enzyme-linked immunosorbent assay.
The test system of data set [5] is Vascular Endothelial Growth Factor (VEGF) production by human prostate cancer cell line PC-3. Description: VEGF ELISA, PC-3. It is filed as cell-based.
In data set [6] the test system is Tissue Factor (TF) production by human prostate cancer cell line DU-145. Description: TF ELISA, DU-145. It is filed as cell-based. Particulars: 20 μM. The method, then: (§2) Cells were treated with 1% Triton X-100 in PBS and left overnight at 4° C. overnight to solubilize TF. […] IMUBIND Tissue Factor ELISA Kit (American Diagnostica Inc, Greenwich, Conn.) was used to determine TF concentration in each sample. The ELISA was carried out according to manufacturer's procedure.

In data set [7] the test system is Tissue Factor (TF) production by human prostate cancer cell line PC-3. Description: TF ELISA, PC-3. The format is cell-based. Particulars: 20 μM. How it is done: as §2
The test system of data set [8] is RPMI 7951. The data set is described as follows: Emory Laboratory Cell Screen, Neutral Red, RPMI 7951. Particulars: RPMI 7951, Melanoma, 72 hours, read-out: Median Growth Inhibitory Concentration (GI50). The format is cell-based, human. How it is done:
as §1

The subject of data set [9] is HUVECS. The data set is described as follows: Emory Laboratory Cell Screen, Neutral Red, HUVECS. The format is cell-based, human. Particulars: 72 hours, read-out: Median Growth Inhibitory Concentration (GI50). The method, then: as §1
For data set [10], the system named is Vascular Endothelial Growth Factor (VEGF) production by human melanoma cell line RPMI-7951. Description: VEGF ELISA, RPMI-7951. Particulars: RPMI-7951; for VEGF ELISA: DMSO control 3713.
The test system of data set [11] is RPMI-7951 human melanoma. The data set is described as follows: Neutral Red Assay, cell viability, RPMI-7951. The following applies: RPMI-7951; for Neutral Red Uptake, %: 72 hours; for Cell Viability: DMSO = 100.
Procedure: RPMI-795 1, MDA-MB-231 and MDA-MB-435 cell lines were cultured in MEM-alpha medium (GIBCO-BRL, Long Island, N.Y.) containing 10% fetal bovine serum (RPMI-7951, MDA-MB-231) or 5% FBS (MDA-MB-435) at 37° C. and under 5% CO2/95% air. […] The cells were cultured in 48 well plates in all of the experiments described.
Neutral Red Assay was utilized to determine the effect of the compounds of the present invention on cell viability. Neutral Red was purchased from GIBCO-BRL (Long Island, N.Y.). Cells were plated at a concentration of 20,000 cells/well and cultured overnight. Compounds or vehicle (DMSO 0.1%) were then added and the plates were incubated for 72 hours. Supernatant from each well was either aspirated or collected and media containing Neutral Red (GIBCO-BRL, Long Island, N.Y.) at a concentration of 15 μl/ml was then added to each well. The plates were then incubated at 37° C. for 30 minutes. Next, the cells were washed with twice with PBS and alcoholic-HCl (0.5N—HCl/35% ethanol) was added to each well. The plates were then placed on a plate shaker until all residues were solubilized (pink color). The solubilized mixtures were then transferred to a 96 well plate and the absorbances were read on a micro-test plate reader at a wavelength of 570 nm.
Cell viability was determined by Neutral Red Assay.
Data set [12] relates to MDA-MB-435. Description: Emory Laboratory Cell Screen, Neutral Red, MDA-MB-435. The format is cell-based, human. The following applies: MDA-MB-435, Breast Cancer, 72 hours, read-out: Median Growth Inhibitory Concentration (GI50). How it is done:
as §1

Setting [13] is: Table 4, 20 μM, mean of triplicate and S.D.

Each structure is given as a SMILES string. Like-named read-outs stand apart in the source and are kept apart here.

As for `CN1CC(=Cc2ccccc2O)C(=O)C(=Cc2ccccc2O)C1` [EF34, 3,5-Bis(2-hydroxybenzylidene)1-methyl4-piperidone], the GI50 in [1] (Homo sapiens) worked out at 800 nM; in data set [2] (Homo sapiens, Endothelial cell), 800 nM.

`COc1cc(C=C2CCCC(=Cc3ccc(O)c(OC)c3)C2=O)ccc1O` [MD10]: the TF in [3] (1 μM, DMSO = 100) came to 113%; in data set [3] (1 μM, DMSO control 7054), 7966 pg/mL; in data set [3] (5 μM, DMSO = 100) it was 25%; in [3] (Table 5, 5 μM, DMSO control 7054) it was 1793 pg/mL; in data set [6] (mean of triplicate and S.D., DMSO 7699 ± 406) it was 5886 ± 332 pg/mL; in data set [7] (mean of triplicate and S.D., DMSO 203 ± 6), 0 ± 0 pg/mL. The “TF ELISA” value in data set [3] (5 μM, DMSO control 7054) is reported as 1793 pg/ml/well. The “VEGF (% of DMSO)” value in [4] (20 μM, DMSO = 100%) is listed as “(42%)”; in data set [5] (20 μM, DMSO = 100%), “(29%)”. In addition, the VEGF is 7830 ± 2262 pg/mL in data set [4] (20 μM, mean of triplicate and S.D., DMSO 18760 ± 2633); 42% in [4] (Table 4, 20 μM, DMSO = 100); 7830 ± 2262 pg/mL in [4] (setting [13]); 611 ± 248 pg/mL in [5] (20 μM, mean of triplicate and S.D., DMSO 2103 ± 100); 29% in data set [5] (Table 4, 20 μM, DMSO = 100); 611 ± 248 pg/mL in [5] (setting [13]). Besides, the VEGF in data set [10] (5 μM, DMSO = 100) turned out to be 44%; in [10] (5 μM, DMSO control 4197 (EF-25: 1045)), 1866 pg/mL; in [10] (20 μM, DMSO = 100), 0%; in data set [10] (20 μM, DMSO control 4197), 0 pg/mL. Besides, the figures for the “TF (% of DMSO)” value in data set [6] (DMSO = 100%) and in data set [7] (DMSO = 100%) were “(76%)” and “(0%)”, respectively. For the same molecule, the GI50 stood at 2200 nM in [8], 14000 nM in data set [9] and 8100 nM in [2]. For the same molecule, the “VEGF ELISA” value turned out to be 1585 pg/ml/well in data set [10] (5 μM) and 315 pg/ml/well in data set [10] (20 μM). The “Neutral Red Uptake, %” value in data set [11] (5 μM) was 82 % of control; in data set [11] (20 μM), 6 % of control. Also, the “Cell Viability” value in [11] (5 μM) was determined as 91%; in data set [11] (20 μM), 42%.

With `COc1cc(C=C2CSCC(=Cc3ccc(O)c(OC)c3)C2=O)ccc1O` [MD283], the GI50 was 1400 nM in [8]; 1800 nM in data set [1]; 1900 nM in data set [12]; 3100 nM in [9]; 2100 nM in [2].
